A word on the IC50: it is the point on the concentration scale where inhibition reaches its midpoint. A high value points to a need for much substance.

Experiment [1] deals with MAGL (Homo sapiens (Human), UniProt Q99685). Nature of the experiment: In vitro competitive activity-based protein profiling (human proteomes). Particulars: human proteome; for inhibition at 1 µM: 1 μM inhibitor, read-out: MAGL % inh. 1 μM (human). The class given is biochemical. The method, then: In Vitro Competitive Activity-Based Protein Profiling
MAGL (Homo sapiens (Human), UniProt Q99685), sequence (Q99685 whole entry): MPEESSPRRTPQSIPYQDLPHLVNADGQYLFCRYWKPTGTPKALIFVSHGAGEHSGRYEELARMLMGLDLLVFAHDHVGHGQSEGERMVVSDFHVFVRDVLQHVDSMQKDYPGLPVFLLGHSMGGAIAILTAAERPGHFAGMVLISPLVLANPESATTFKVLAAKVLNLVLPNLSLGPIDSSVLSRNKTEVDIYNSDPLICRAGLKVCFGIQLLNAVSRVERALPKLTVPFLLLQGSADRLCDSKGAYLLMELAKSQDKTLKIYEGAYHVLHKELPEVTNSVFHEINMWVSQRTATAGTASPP
Proteomes (mouse brain membrane fraction or cell lysates for mouse assays; human prefrontal cortex or cell membrane fractions for human assays) (50 μL, 1.0 mg/mL total protein concentration) were preincubated with varying concentrations of inhibitors at 37° C. After 30 min, FP—Rh or HT-01 (1.0 μL, 50 μM in DMSO) was added and the mixture was incubated for another 30 min at 37° C. Reactions were quenched with SDS loading buffer (15 μL—4×) and run on SDS-PAGE.

The target of experiment [2] is MAGL (Mus musculus (Mouse), UniProt O35678). Nature of the experiment: Mouse brain proteomes from inhibitor treated mice (oral gavage, ABPP analysis). Conditions: 5 mg/kg oral gavage, 4 h after administration, read-out: MAGL % inh. 5 mg/kg (mouse). The experiment is classed as in vivo. The method, then: Preparation of Mouse Brain Proteomes from Inhibitor Treated Mice
MAGL (Mus musculus (Mouse), UniProt O35678), sequence (O35678 whole entry): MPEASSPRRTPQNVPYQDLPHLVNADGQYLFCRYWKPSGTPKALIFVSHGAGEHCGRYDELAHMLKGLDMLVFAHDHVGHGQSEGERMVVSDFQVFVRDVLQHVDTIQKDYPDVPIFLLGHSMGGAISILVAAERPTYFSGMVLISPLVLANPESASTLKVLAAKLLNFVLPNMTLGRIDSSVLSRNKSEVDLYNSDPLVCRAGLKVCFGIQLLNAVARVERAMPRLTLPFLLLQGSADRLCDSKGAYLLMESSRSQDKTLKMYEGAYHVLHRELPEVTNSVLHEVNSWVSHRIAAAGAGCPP
Inhibitors were administered to wild-type C57Bl/6J by oral gavage in a vehicle of polyethylene glycol.

On to `CC(C)(Oc1cc(Cl)ccc1CN1CCN(C(=O)OC(C(F)(F)F)C(F)(F)F)CC1)C(=O)O` [Example 1, 2-(5-Chloro-2-((4-(((1,1,1,3,3,3-hexafluoropropan-2-yl)oxy)carbonyl)piperazin-1-yl)methyl)phenoxy)-2-methylpropanoic acid], for which, in experiment [1], the inhibition at 1 µM was greater than 75% and the IC50 was less than 50 nM. For the same molecule, the inhibition at 5 mg/kg in experiment [2] fell in the range of 0 to 25%.
In the same order, the values of `CC(C)(Oc1c(CN2CCN(C(=O)OC(C(F)(F)F)C(F)(F)F)CC2)cccc1C(F)(F)F)C(=O)O` [Example 2, 2-(2-((4-(((1,1,1,3,3,3-Hexafluoropropan-2-yl)oxy)carbonyl)piperazin-1-yl)methyl)-6-(trifluoromethyl)phenoxy)-2-methylpropanoic acid] are greater than 75%, less than 50 nM and greater than 75%.
In the same order, the values of `CC(C)(Oc1cc(C(F)(F)F)ccc1CN1CCN(C(=O)OC(C(F)(F)F)C(F)(F)F)CC1)C(=O)O` [Example 3, 2-(2-((4-(((1,1,1,3,3,3-Hexafluoropropan-2-yl)oxy)carbonyl)piperazin-1-yl)methyl)-5-(trifluoromethyl)phenoxy)-2-methylpropanoic acid] are greater than 75%, less than 50 nM and greater than 75%.
In the same order, the values of `CC(C)(COc1cc(C(F)(F)F)ccc1CN1CCN(C(=O)OC(C(F)(F)F)C(F)(F)F)CC1)C(=O)O` [Example 4, 3-(2-((4-(((1,1,1,3,3,3-Hexafluoropropan-2-yl)oxy)carbonyl)piperazin-1-yl)methyl)-5-(trifluoromethyl)phenoxy)-22-dimethylpropanoic acid] are greater than 75%, less than 50 nM and greater than 75%.
As for `CC(C)(COc1cc(CN2CCN(C(=O)OC(C(F)(F)F)C(F)(F)F)CC2)cc(C(F)(F)F)c1)C(=O)O` [Example 5, 3-(3-((4-(((1,1,1,3,3,3-Hexafluoropropan-2-yl)oxy)carbonyl)piperazin-1-yl)methyl)-5-(trifluoromethyl)phenoxy)-2,2-dimethylpropanoic acid], in experiment [1], the inhibition at 1 µM is greater than 75% and the IC50 was less than 50 nM. Besides, the inhibition at 5 mg/kg in experiment [2] was greater than 75%.
As to `CC(C)(Oc1cc(C(F)(F)F)ccc1CN1CCN(C(=O)OC(C(F)(F)F)C(F)(F)F)CC1)C(=O)NS(=O)(=O)C1CC1` [Example 6, 1,1,1,3,3,3-Hexafluoropropan-2-yl 4-(2-((1-(cyclopropanesulfonamido)-2-methyl-1-oxopropan-2-yl)oxy)-4-(trifluoromethyl)benzyl)piperazine-1-carboxylate], in experiment [1], the inhibition at 1 µM is greater than 75% and the concentration for half-maximal inhibition (IC50) was less than 50 nM. For the same molecule, in experiment [2], the inhibition at 5 mg/kg lay in the range of 0 to 25%.
With `O=C(O)COc1c(F)cccc1CN1CCN(C(=O)OC(C(F)(F)F)C(F)(F)F)CC1` [Example 11, 2-(2-Fluoro-6-((4-(((1,1,1,3,3,3-hexafluoropropan-2-yl)oxy)carbonyl)piperazin-1-yl)methyl)phenoxy)acetic acid], the inhibition at 1 µM in experiment [1] is 50 to 75%.
Same read-out and setting: the figure for `CCOC(=O)OC(C)OC(=O)C(C)(C)Oc1cc(C(F)(F)F)ccc1CN1CCN(C(=O)OC(C(F)(F)F)C(F)(F)F)CC1` (stereo not drawn) [Example 12, 1,1,1,3,3,3-Hexafluoropropan-2-yl 4-(2-((1-(1-((ethoxycarbonyl)oxy)ethoxy)-2-methyl-1-oxopropan-2-yl)oxy)-4-(trifluoromethyl)benzyl)piperazine-1-carboxylate] is greater than 75%; for `CC(OC(=O)C(C)C)OC(=O)C(C)(C)Oc1cc(C(F)(F)F)ccc1CN1CCN(C(=O)OC(C(F)(F)F)C(F)(F)F)CC1` (stereo not drawn) [Example 13, 1,1,1,3,3,3-Hexafluoropropan-2-yl 4-(2-((1-(1-(isobutyryloxy)ethoxy)-2-methyl-1-oxopropan-2-yl)oxy)-4-(trifluoromethyl)benzyl)piperazine-1-carboxylate] it is greater than 75%.
`Cc1ccc(CN2CCN(C(=O)OC(C(F)(F)F)C(F)(F)F)CC2)c(OC(C)(C)C(=O)O)c1Cl` [Example 17, 2-(2-Chloro-6-((4-(((1,1,1,3,3,3-hexafluoropropan-2-yl)oxy)carbonyl)piperazin-1-yl)methyl)-3-methylphenoxy)-2-methylpropanoic acid]: in experiment [1], the inhibition at 1 µM was greater than 75% and the IC50 was less than 50 nM. Also, the inhibition at 5 mg/kg in experiment [2] was in the range of 50 to 75%.
As for `CC(C)(Oc1cc(C#N)ccc1CN1CCN(C(=O)OC(C(F)(F)F)C(F)(F)F)CC1)C(=O)O` [Example 26, 2-(5-Cyano-2-((4-(((1,1,1,3,3,3-hexafluoropropan-2-yl)oxy)carbonyl)piperazin-1-yl)methyl)phenoxy)-2-methylpropanoic acid], in experiment [1], the inhibition at 1 µM was greater than 75% and the 50% inhibitory concentration (IC50) is less than 50 nM.
Regarding `COc1ccc(OC(C)(C)C(=O)O)cc1CN1CCN(C(=O)OC(C(F)(F)F)C(F)(F)F)CC1` [Example 35, 2-(3-((4-(((1,1,1,3,3,3-Hexafluoropropan-2-yl)oxy)carbonyl)piperazin-1-yl)methyl)-4-methoxyphenoxy)-2-methylpropanoic acid], the inhibition at 10 µM in experiment [1] (10 μM inhibitor, read-out: MAGL % inh. (human) @ 10 μM) is greater than 75%.
As for `O=C(O)COc1cc(CN2CCN(C(=O)OC(C(F)(F)F)C(F)(F)F)CC2)cc(OC(F)(F)F)c1` [Example 44, 2-(3-((4-(((1,1,1,3,3,3-Hexafluoropropan-2-yl)oxy)carbonyl)piperazin-1-yl)methyl)-5-(trifluoromethoxy)phenoxy) acetic acid], in experiment [1], the inhibition at 1 µM is greater than 75% and the IC50 was less than 50 nM.
For `C[C@@H](Oc1cc(C#N)ccc1CN1CCN(C(=O)OC(C(F)(F)F)C(F)(F)F)CC1)C(=O)O` [Example 45, (R)-2-(5-Cyano-2-((4-(((1,1,1,3,3,3-hexafluoropropan-2-yl)oxy)carbonyl)piperazin-1-yl)methyl)phenoxy) propanoic acid], the inhibition at 1 µM in experiment [1] was greater than 75%.
The same measure, in the same setting: the result for `C[C@H](Oc1cc(C#N)ccc1CN1CCN(C(=O)OC(C(F)(F)F)C(F)(F)F)CC1)C(=O)O` [Example 46, (S)-2-(5-Cyano-2-((4-(((1,1,1,3,3,3-hexafluoropropan-2-yl)oxy)carbonyl)piperazin-1-yl)methyl)phenoxy) propanoic acid] reads greater than 75%.
`CC(C)(Oc1cc(CN2CCN(C(=O)OC(C(F)(F)F)C(F)(F)F)CC2)cc(C(F)(F)F)c1)C(=O)O` [Example 47, 2-(3-((4-(((1,1,1,3,3,3-Hexafluoropropan-2-yl)oxy)carbonyl)piperazin-1-yl)methyl)-5-(trifluoromethyl)phenoxy)-2-methylpropanoic acid]: in experiment [1], the inhibition at 1 µM is greater than 75% and the 50% inhibitory concentration (IC50) was less than 50 nM.
In the case of `Cc1ccc(CN2CCN(C(=O)OC(C(F)(F)F)C(F)(F)F)CC2)c(OCC(C)(C)C(=O)O)c1F` [Example 48, 3-(2-Fluoro-6-((4-(((1,1,1,3,3,3-hexafluoropropan-2-yl)oxy)carbonyl)piperazin-1-yl)methyl)-3-methylphenoxy)-2,2-dimethylpropanoic acid], in experiment [1], the inhibition at 1 µM was greater than 75% and the half-maximal inhibitory concentration (IC50) was less than 50 nM. Further, the inhibition at 5 mg/kg in experiment [2] is greater than 75%.
Turning to `CC(C)(C)C(=O)OCOC(=O)C(C)(C)Oc1cc(C(F)(F)F)ccc1CN1CCN(C(=O)OC(C(F)(F)F)C(F)(F)F)CC1` [Example 49, 1,1,1,3,3,3-Hexafluoropropan-2-yl 4-(2-((2-methyl-1-oxo-1-((pivaloyloxy)methoxy)propan-2-yl)oxy)-4-(trifluoromethyl)benzyl) piperazine-1-carboxylate], the inhibition at 1 µM in experiment [1] was greater than 75%.
In the case of `CCOC(=O)C(C)(C)Oc1cc(C(F)(F)F)ccc1CN1CCN(C(=O)OC(C(F)(F)F)C(F)(F)F)CC1` [Example 50, 1,1,1,3,3,3-Hexafluoropropan-2-yl 4-(2-((1-ethoxy-2-methyl-1-oxopropan-2-yl)oxy)-4-(trifluoromethyl)benzyl) piperazine-1-carboxylate], the inhibition at 1 µM in experiment [1] is greater than 75%.
Consider `CC(C)OC(=O)OC(C)OC(=O)C(C)(C)Oc1cc(C(F)(F)F)ccc1CN1CCN(C(=O)OC(C(F)(F)F)C(F)(F)F)CC1` (stereo not drawn) [Example 51, 1,1,1,3,3,3-Hexafluoropropan-2-yl 4-(2-((1-(1-((isopropoxycarbonyl)oxy)ethoxy)-2-methyl-1-oxopropan-2-yl)oxy)-4-(trifluoromethyl)benzyl) piperazine-1-carboxylate], for which, in experiment [1], the inhibition at 1 µM was greater than 75%.

For the origin of these results see US11214557B2, “MAGL inhibitors” (H. Lundbeck A/S, priority 2018, dated 2022).
